Test [1] can be described thus: Binding affinity to Methicillin-resistant Staphylococcus aureus COL TarG assessed as suppression of targocil-mediated bacterial growth inhibition after 20 hrs in presence of L-638. Further details: species or system Staphylococcus aureus subsp. aureus COL.
The nature of test [2]: Inhibition of Methicillin-resistant Staphylococcus aureus COL TarO assessed as suppression of bacteriophageK-mediated cell lysis. Further details: species or system Staphylococcus aureus subsp. aureus COL.
For test [3], the system named is Staphylococcus aureus subsp. aureus COL. Put plainly: Inhibition of Staphylococcus aureus COL TarO assessed as concentration of compound for potentiation of action of imipenem-mediated bacterial growth inhibition.
The test system of test [4] is Staphylococcus epidermidis. The test is described as follows: Inhibition of Methicillin-resistant Staphylococcus epidermidis TarO assessed as percentage of MRSE MITC<=25 uM for 25 isolates. Further details: scale not given: the % may be the effect or the level left.
The subject of a further test is Staphylococcus aureus. The test is described as follows: Inhibition of Methicillin-resistant Staphylococcus aureus TarO assessed as percentage of MRSA MITC<=25 uM for 25 isolates. Further details: scale not given: the % may be the effect or the level left.
Test [5] is described as follows: Inhibition of mnaA (unknown origin) at 200 uM.
Test [6] in a line: Inhibition of TarA (unknown origin) at 200 uM.
The nature of test [7]: Inhibition of Staphylococcus aureus TarO. Further details: species or system Staphylococcus aureus subsp. aureus COL.

Each structure is given as a SMILES string. pEC50, pIC50: −log10 of the molar value. Active and inactive are the calls of the source. No cut-off for these calls is given here.

In general, pEC50 refers to −log10 of the EC50, conventionally taken in molar units. A word on the pIC50: it is −log10 of the IC50, conventionally taken in molar units.

`CCN(C(=O)CCn1c(C2CCCCC2)nc2ccccc21)C1CCCCC1`: the pEC50 in test [1] was 5.21; in test [2], 5.00. Further, the MITC95 in test [3] came out at 1.9 µM.

On to `CCN(C(=O)CCn1c(N2CCC(C)CC2)nc2ccccc21)C1CCCCC1`, for which the negative-log EC50 (pEC50) in test [1] is 6.04; in test [2] it was 5.42. Further, the MITC95 in test [3] worked out at 1.3 µM.

For `CCN(C(=O)CCn1c(C2CCCCC2)nc2ccccc21)c1ccccc1`, the negative logarithm of the EC50 (pEC50) in test [1] and in test [2] was 3.70 in each case. Besides, the MITC95 in test [3] is 50 µM.

Regarding `CC1(C)[C@@H]2CC[C@@]1(C)[C@@H](NC(=O)CCn1c(C3CCCCC3)nc3ccccc31)C2`, the negative logarithm of the EC50 (pEC50) in test [1] is 4.24; in test [2] it was 3.75. The MITC95 in test [3] was 16.7 µM.

Consider `CC1(C)C2CC[C@]1(C)[C@@H](NC(=O)CCn1c(C3CCNCC3)nc3ccccc31)C2`, for which the pEC50 in test [1] and in test [2] was less than 3.70 each time. Moreover, the MITC95 in test [3] was more than 200 µM.

Regarding `O=C(CCn1c(C2CCCCC2)nc2ccccc21)NC1CCCCC1`, the pEC50 is 3.86 in test [1] and 3.70 in test [2]. For the same compound, the MITC95 in test [3] came to 25 µM.

For the compound `CCN(C(=O)CCn1c(C2CCCCC2)nc2ccccc21)C1CCCC1`, the negative logarithm of the EC50 (pEC50) in test [1] was 4.53; in test [2] it was 3.70. Also, the MITC95 in test [3] was 12.5 µM.

Turning to `CCN(C(=O)CCn1c(C2CCC(C(C)(C)C)CC2)nc2ccccc21)C1CCCCC1` (stereo not given), the pEC50 in test [1] was 7.30; in test [2], 6.60. Further, the MITC95 in test [3] was 0.015 µM.

Take `CC(=O)N1CCC(c2nc3ccccc3n2CCC(=O)N[C@H]2CC3CC[C@@]2(C)C3(C)C)CC1`: the negative-log EC50 (pEC50) in test [1] and in test [2] was less than 3.70 in each case. The MITC95 in test [3] is more than 200 µM.

With `CCN(C(=O)CCn1c(N2CCC(C(C)(C)C)CC2)nc2ccccc21)C1CCCCC1`, the negative-log EC50 (pEC50) in test [1] is 6.89; in test [2], 6.60. Also, the Activity in test [4] turned out to be 29%; with Staphylococcus aureus it was 76%. Besides, the MITC95 in test [3] is 0.016 µM.

Take `CC1(C)C2CC[C@]1(C)[C@@H](NC(=O)CCn1c(C3CCN(S(C)(=O)=O)CC3)nc3ccccc31)C2`: the pEC50 in test [1] and in test [2] was less than 3.70 in each case. The MITC95 in test [3] is more than 200 µM.

On to `CCN1CCC(c2nc3ccccc3n2CCC(=O)N[C@H]2CC3CC[C@@]2(C)C3(C)C)CC1`, for which the pEC50 in test [1] and in test [2] was less than 3.70 throughout. For the same compound, the MITC95 in test [3] was more than 200 µM.

As for `CN(C(=O)CCn1c(C2CCCCC2)nc2ccccc21)C1CCCCC1`, the negative logarithm of the EC50 (pEC50) was 4.94 in test [1] and 4.60 in test [2]. For the same compound, in test [3], the MITC95 was determined as 4.7 µM.

Regarding `CCN(C(=O)CCn1c2ccc(Br)cc2nc1[C@H]1CC[C@H](CC)CC1)C1CCCCC1`, the pEC50 in test [1] was 7.82; in test [2], 7.57. The Activity is 46% in test [4] and 80% in the test with Staphylococcus aureus. In addition, the MITC95 in test [3] was found to be 0.004 µM.

For `CCN(C(=O)CCn1c2cccc(C)c2nc1[C@H]1CC[C@H](CC)CC1)C1CCCCC1`, the results for the pEC50 in test [1] and in test [2] were 6.10 and 6.05, respectively. Besides, the Activity in test [4] is 92%; in the test on Staphylococcus aureus it was 68%. Besides, the MITC95 in test [3] amounted to 0.1 µM.

For `CCC1CCN(c2nc3ccccc3n2CCC(=O)N(CC)C2CCCCC2)CC1`, the figures for the pEC50 in test [1] and in test [2] were 6.66 and 6.41, respectively. Also, the MITC95 in test [3] came to 0.1 µM.

With `CC(C)(C)OC(=O)N1CCC(c2nc3ccccc3n2CCC(=O)N[C@H]2CC3CC[C@@]2(C)C3(C)C)CC1`, the pEC50 in test [1] is 4.23; in test [2], 3.79. Also, in test [3], the MITC95 was 9.4 µM.

In the case of `CCN(C(=O)CCn1c(C2CCCCC2)nc2ccccc21)C1CCCCCC1`, the negative-log EC50 (pEC50) in test [1] and in test [2] was 3.70 throughout. Further, the MITC95 in test [3] was found to be 4.7 µM.

Turning to `CCC1CCC(c2nc3ccccc3n2CCC(=O)N(CC)C2CCCCC2)CC1` (stereo not given), the pEC50 was 6.62 in test [1] and 6.66 in test [2]. Besides, the MITC95 in test [3] is 0.03 µM.

On to `CCCN(C(=O)CCn1c(C2CCCCC2)nc2ccccc21)C1CCCCC1`, for which the figures for the pEC50 in test [1] and in test [2] were 5.11 and 3.70, respectively. In addition, in test [3], the MITC95 was 6.2 µM.

Consider `CCN(C(=O)CCn1c2cc(Br)ccc2nc1[C@H]1CC[C@H](CC)CC1)C1CCCCC1`, for which the values for the pEC50 in test [1] and in test [2] were 6.48 and 6.62, respectively. The values for the Activity (in test [4]; with Staphylococcus aureus) were 42% and 68%, respectively. Besides, the MITC95 in test [3] was 0.031 µM.

With `CC1(C)[C@@H]2CC[C@@]1(C)[C@H](NC(=O)CCn1c(C3CCCCC3)nc3ccccc31)C2`, the inhibition result in test [5] and in test [6] was “inactive” throughout. For the same compound, the negative-log EC50 (pEC50) in test [1] is 5.62; in test [2], 5.10. In addition, the pIC50 in test [7] was 6.40. In addition, the MITC95 in test [3] was 1.6 µM.

For the compound `CCN(C(=O)CCn1c2cccc(Br)c2nc1[C@H]1CC[C@H](CC)CC1)C1CCCCC1`, the figures for the negative logarithm of the EC50 (pEC50) in test [1] and in test [2] were 5.89 and 5.47, respectively. The Activity turned out to be 83% in test [4] and 68% in the test with Staphylococcus aureus. Further, the MITC95 in test [3] is 0.3 µM.

Take `CCN(C(=O)CCn1c(N2CCCCC2)nc2ccccc21)C1CCCCC1`: the pEC50 in test [1] was 5.15; in test [2], less than 3.70. Also, the MITC95 in test [3] came out at 4.7 µM.

Values taken from ChEMBL document CHEMBL4425162, “Discovery of potent wall teichoic acid early stage inhibitors” (Bioorg Med Chem Lett, 2016).
